Experimental data reported in patent US8680251B2, “Triterpenoid 2-deoxy glycosides, method of preparation thereof and use thereof as medicaments” (Univerzita Palackeho V Olomouci, priority 2008, dated 2014).

Columns and labels:
[1] = test system: U87Mg (human glioblastoma); assay: Cytotoxic MTT test, U87Mg; assay type: cell-based; conditions: U87Mg cells, 72 h
Description: (§1) Cytotoxic MTT test on cell lines derived from normal tissues and tumors were used for assessing the antitumor activity of the novel compounds in vitro. We used namely the lines K562 (human myeloid leukemia), K562-tax (human myeloid leukemia resistant to taxol and overexpressing the protein of multiple drug resistance PgP), CEM (T-lymfoblastic leukemia), CEM-DNR-bulk (T-lymfoblastic leukemia resistant to doxorubicin, lacking the expression of the target gene for topoisomerase II alfa inhibitors and expressing the multiple drug resistance protein MRP1), line A549 (human lung adenocarcinoma), line HT-29 (human colorectal adenocarcinoma), MCF-7 (human breast adenocarcinoma, p53 wild type), HCT116 p53wt (human colorectal adenocarcinoma, wild-type p53), HCT116 p53mut (human colorectal adenocarcinoma with mutated p53), U87Mg (human glioblastoma). Expression characteristics, sensitivity profiles to classical antitumor drugs and methodology of the cytotoxic MTT test were repeatedly published (Nosková V. et al., Neoplasma 2002, S arek J. et al., J. Med. Chem., 2003, Dzubák P. et al., Bioorg. Med. Chem., 2006).
(§2) The MTT test was carried out according to the following procedure. The tested compound in six dilutions (final concentration of 250 μmol/l, another five concentrations were obtained by 4-fold, 16-fold, 64-fold, 256-fold and 1024-fold dilution of this solution) was added to tissue culture of cells in the cultivation plate wells. Each concentration was tested in doublet. The cell suspension was incubated in the environment containing the tested compound for 72 h at 37° C., in 5% CO2 atmosphere and 100% humidity. MTT—[3-(4,5-dimethylthiazol-2-yl)-2,5-difenyl-2H-tetrazolium bromid]—was then added to each well and the incubation was continued for additional 4 h. The incubation was finished by an addition of sodium dodecansulphonate and the percentage of surviving cells was determined spectrophotometrically at 540 nm. The concentration lethal for 50% of the tumor cells—IC50—was calculated from dose-response curves.

[2] = test system: CEM-DNR-bulk (T-lymfoblastic leukemia resistant to doxorubicin); assay: Cytotoxic MTT test, CEM-DNR-bulk; assay type: cell-based; conditions: CEM-DNR-BULK cells, 72 h
Description: as §1, §2

[3] = test system: HCT116 p53wt (human colorectal adenocarcinoma, wild-type p53); assay: Cytotoxic MTT test, HCT116 p53wt; assay type: cell-based; conditions: 72 h
Description: as §1, §2

[4] = test system: HT-29 (human colorectal adenocarcinoma); assay: Cytotoxic MTT test, HT-29; assay type: cell-based; conditions: HT-29 cells, 72 h
Description: as §1, §2

[5] = test system: K562 (human myeloid leukemia); assay: Cytotoxic MTT test, K562; assay type: cell-based; conditions: K562 cells, 72 h
Description: as §1, §2

[6] = test system: CEM (T-lymfoblastic leukemia); assay: Cytotoxic MTT test, CEM; assay type: cell-based; conditions: CEM cells, 72 h
Description: as §1, §2

PC-3 = assay: Cytotoxic MTT test, PC-3; assay type: cell-based; conditions: PC-3 cells, 72 h
[7] = test system: MCF-7 (human breast adenocarcinoma, p53 wild type); assay: Cytotoxic MTT test, MCF-7; assay type: cell-based; conditions: 72 h
Description: as §1, §2

[8] = test system: HCT116 p53mut (human colorectal adenocarcinoma with mutated p53); assay: Cytotoxic MTT test, HCT116 p53mut; assay type: cell-based; conditions: 72 h
Description: as §1, §2

[9] = test system: K562-tax (human myeloid leukemia resistant to taxol); assay: Cytotoxic MTT test, K562-tax; assay type: cell-based; conditions: K562-tax cells, 72 h
Description: as §1, §2

[10] = Storage stability of cyclodextrin solution; assay type: physicochemical; conditions: solution of 3a with 2-hydroxypropyl-γ-cyclodextrin in water/propylene glycol, freezer at −20 C, several months
Description: 2-hydroxypropyl-γ-cyclodextrin (7.00 g) was dissolved under vigorous stirring and at the temperature of 50° C. in a mixture of water (14.0 ml) and propylene glycol (6.0 ml). 2-deoxy galactoside 3a (1.00 g) is then added at once into the resulting colourless viscous solution and the mixture is vigorously stirred at the temperature of 50° C. Usually, 20 min is needed for complete dissolution. After complete dissolution of the triterpenoid, the resulting bright solution is cooled down to room temperature, filtered by an injection syringe filter (hydrophilic, pore size 0.22 μm) in order to be sterile and is placed to a refrigerator. […] The thus prepared formulation can be used for oral or, after optionally adding a saline solution, for intravenous administration.

| Compound | IC50 ([1]; Homo sapiens, U-87 MG) [µM] | IC50 [2] [µM] | IC50 ([3]; Homo sapiens, HCT-116, HCT116 p53wt cells) [µM] | IC50 ([4]; Homo sapiens) [µM] | IC50 ([5]; Homo sapiens) [µM] | IC50 ([6]; Homo sapiens, CCRF-CEM) [µM] | IC50 (PC-3; Homo sapiens) [µM] | IC50 ([7]; Homo sapiens, MCF7, MCF-7 cells) [µM] | IC50 ([8]; Homo sapiens, HCT-116, HCT116 p53 mut cells) [µM] | IC50 ([9]; Homo sapiens) [µM] | IC50 [1] [µM] | IC50 ([3]; HCT116 p53wt cells) [µM] | IC50 [4] [µM] | IC50 [5] [µM] | IC50 [6] [µM] | IC50 (PC-3) [µM] | IC50 ([7]; MCF-7 cells) [µM] | IC50 ([8]; HCT116 p53 mut cells) [µM] | IC50 [9] [µM] | decomposition on storage [10] |
| --- | --- | --- | --- | --- | --- | --- | --- | --- | --- | --- | --- | --- | --- | --- | --- | --- | --- | --- | --- | --- |
| COC(=O)[C@@]12CC[C@]3(C)C(CCC4[C@@]5(C)CC[C@H](OC6CC(OC(C)=O)C(OC(C)=O)C(COC(C)=O)O6)C(C)(C)C5CC[C@]43C)C1=C(C(C)C)C(=O)C2 (stereo partly shown) [Compound 2b] | ≥ 250 | 25 | 1.6 | 2.4 | 0.6 | 0.6 | 22.1 | 2.5 | 3.5 | 3 | – | – | – | – | – | – | – | – | – | – |
| CC(=O)OC[C@H]1O[C@H](OC[C@@]23CC[C@]4(C)C(CCC5[C@@]6(C)CC[C@H](OC(C)=O)C(C)(C)C6CC[C@]54C)C2=C(C(C)C)C(=O)C3)C[C@@H](OC(C)=O)[C@H]1OC(C)=O (stereo partly shown) [Compound 1a] | – | 12.5 | – | – | – | – | – | – | – | – | ≥ 250 | 7.9 | 11.4 | 2.4 | 1.8 | 23.5 | 11.4 | 8.8 | 9.8 | – |
| COC(=O)[C@@]12CC[C@]3(C)C(CCC4[C@@]5(C)CC[C@H](O[C@@H]6C[C@@H](O)[C@H](O)[C@@H](CO)O6)C(C)(C)C5CC[C@]43C)C1=C(C(C)C)C(=O)C2 (stereo partly shown) [Compound 3b] | – | 25 | – | – | – | – | – | – | – | – | 42.7 | 11.5 | 18.9 | 11.6 | 6.2 | 36.4 | 18.4 | 21 | 12.9 | – |
| CC(=O)OC[C@H]1O[C@H](OC[C@@]23CC[C@]4(C)C(CCC5[C@@]6(C)CC[C@H](OC(C)=O)C(C)(C)C6CC[C@]54C)C2=C(C(C)C)C(=O)C3)C[C@@H](OC(C)=O)[C@@H]1OC(C)=O (stereo partly shown) [Compound 1b] | – | 41.5 | – | – | – | – | – | – | – | – | ≥ 250 | 8.6 | 10.1 | 6.4 | 9.2 | 39.3 | 17 | 12.4 | 9.5 | – |
| COC(=O)[C@@]12CC[C@]3(C)C(CCC4[C@@]5(C)CC[C@H](O[C@@H]6C[C@@H](O)[C@@H](O)[C@@H](CO)O6)C(C)(C)C5CC[C@]43C)C1=C(C(C)C)C(=O)C2 (stereo partly shown) [Compound 3a] | – | 34.4 | – | – | – | – | – | – | – | – | 53 | 10.3 | 17.8 | 11.5 | 4.7 | 11.2 | 13.6 | 17.5 | 15.9 | without any detectable decomposition |
| CC(=O)OC[C@H]1O[C@H](OC[C@@]23CC[C@]4(C)C(CCC5[C@@]6(C)CC[C@H](OC(C)=O)C(C)(C)C6CC[C@]54C)C2=C(C(C)C)C(=O)C3)C[C@@H](Br)[C@@H]1OC(C)=O (stereo partly shown) [Compound 1c] | – | 27 | – | – | – | – | – | – | – | – | ≥ 250 | 19.1 | 40.9 | 9 | 3.8 | ≥ 250 | 35.2 | 14 | 22.6 | – |
